biological target: Human recombinant carboxy-terminal his-tagged LDHA (amino acids 2-332) (Homo sapiens, UniProt P00338); assay: LDHA enzyme inhibition assay (NADH fluorescence); conditions: LDHA IC50 (μM), 1 nM LDHA, NADH and pyruvate, stereochemistry of tested sample given

Compound	IC50
O=C1CC(c2ccsc2)(c2cccc(N3CC(C4CCOCC4)C3)n2)NC(=O)C1Sc1ccccc1Cl (stereo not shown) [Example 232, 3-(2-chlorophenyl)sulfanyl-6-[6-(3-tetrahydropyran-4-ylazetidin-1-yl)-2-pyridyl]-6-(3-thienyl) piperidine-2,4-dione]	0.009 µM
O=C1CC(c2ccsc2)(c2cccc(N3CC(C4CCOCC4)C3)n2)NC(=O)C1Sc1ccccc1Cl (stereo not shown) [Example 240, 3-(2-chlorophenyl)sulfanyl-6-[6-(3-tetrahydropyran-4-ylazetidin-1-yl)-2-pyridyl]-6-(3-thienyl) piperidine-2,4-dione]	0.003 µM
O=C(NCC1CC1)c1cccc(C2(c3ccsc3)CC(=O)C(Sc3ccccc3Cl)C(=O)N2)n1 (stereo not shown) [Example 242, 6-[5-(2-chlorophenyl)sulfanyl-4,6-dioxo-2-(3-thienyl)-2-piperidyl]-N-(cyclopropylmethyl) pyridine-2-carboxamide]	0.004 µM
COCC(C)Oc1cccc(C2(c3ccsc3)CC(=O)C(Sc3ccccc3Cl)C(=O)N2)n1 (stereo not shown) [Example 246, 3-(2-chlorophenyl)sulfanyl-6-[6-(2-methoxy-1-methyl-ethoxy)-2-pyridyl]-6-(3-thienyl)piperidine-2,4-dione]	0.01 µM
CCOCC(C)Oc1cccc(C2(c3ccsc3)CC(=O)C(Sc3ccccc3Cl)C(=O)N2)n1 (stereo not shown) [Example 247, 3-((2-chlorophenyl)thio)-6-(6-((1-ethoxypropan-2-yl)oxy)pyridin-2-yl)-6-(thiophen-3-yl)piperidine-2,4-dione]	0.01 µM
CCC1(COc2cccc([C@@]3(c4ccsc4)CC(=O)C(Sc4ccccc4Cl)C(=O)N3)n2)COC1 (stereo partly shown) [Example 248]	0.005 µM
COC(C)(C)CCOc1cccc(C2(c3ccsc3)CC(=O)C(Sc3ccccc3Cl)C(=O)N2)n1 (stereo not shown) [Example 249, 3-(2-chlorophenyl)sulfanyl-6-[6-(3-methoxy-3-methyl-butoxy)-2-pyridyl]-6-(3-thienyl)piperidine-2,4-dione]	0.099 µM
CC/C=C/COc1cccc(C2(c3ccsc3)CC(=O)C(Sc3ccccc3Cl)C(=O)N2)n1 (stereo not shown) [Example 250, 3-(2-chlorophenyl)sulfanyl-6-(6-pent-2-enoxy-2-pyridyl)-6-(3-thienyl) piperidine-2,4-dione]	0.036 µM
O=C1CC(c2ccsc2)(c2cccc(OCC3CCC(CO)CC3)n2)NC(=O)C1Sc1ccccc1Cl (stereo not shown) [Example 253]	0.081 µM
COc1cc(-c2cccc(C3(c4ccsc4)CC(=O)C(Sc4ccccc4Cl)C(=O)N3)n2)ccc1F (stereo not shown) [Example 255, 3-((2-chlorophenyl)thio)-6-(6-(4-fluoro-3-methoxy-phenyl)pyridin-2-yl)-6-(thiophen-3-yl)piperidine-2,4-dione]	0.102 µM
O=C1CC(c2ccsc2)(c2cccc(Cc3ccc(F)cc3)n2)NC(=O)C1Sc1ccccc1Cl (stereo not shown) [Example 257, 3-((2--chlorophenyl)thio)-6-(6-(4-fluorobenzyl)pyridin-2-yl)-6-(thiophen-3-yl)piperidine-2,4-dione]	0.016 µM
O=C1CC(c2ccsc2)(c2cccc(Cc3ccc(F)cc3F)n2)NC(=O)C1Sc1ccccc1Cl (stereo not shown) [Example 258, 3-((2-chlorophenyl)thio)-6-(6-(2,4-difluorobenzyl)pyridin-2-yl)-6-(thiophen-3-yl)piperidine-2,4-dione]	0.087 µM
COc1cc(Cc2cccc(C3(c4ccsc4)CC(=O)C(Sc4ccccc4Cl)C(=O)N3)n2)ccc1F (stereo not shown) [Example 259, 3-((2-chlorophenyl)thio)-6-(6-(4-fluoro-3-methoxy-benzyl)pyridin-2-yl)-6-(thiophen-3-yl)piperidine-2,4-dione]	0.011 µM
O=C1CC(c2ccsc2)(c2cccc(-c3ccncc3)n2)NC(=O)C1Sc1ccccc1Cl (stereo not shown) [Example 260, 6-([2,4′-bipyridin]-6-yl)-3-((2-chlorophenyl)thio)-6-(thiophen-3-yl)piperidine-2,4-dione]	0.006 µM
O=C1CC(c2ccsc2)(c2cccc(-c3ccnc(N4CCOCC4)c3)n2)NC(=O)C1Sc1ccccc1Cl (stereo not shown) [Example 261, 3-((2-chlorophenyl)thio)-6-(2′-morpholino-[2,4′-bipyridin]-6-yl)-6-(thiophen-3-yl)piperidine-2,4-dione]	0.039 µM
CCN(c1ccc(F)cc1)c1cccc(C2(c3ccsc3)CC(=O)C(Sc3ccccc3Cl)C(=O)N2)n1 (stereo not shown) [Example 263, 3-((2-chlorophenyl)thio)-6-(6-(ethyl(4-fluorophenyl)amino)pyridin-2-yl)-6-(thiophen-3-yl)piperidine-2,4-dione]	0.086 µM
Cc1cc(Nc2cccc(C3(c4ccsc4)CC(=O)C(Sc4ccccc4Cl)C(=O)N3)n2)n(C)n1 (stereo not shown) [Example 264, 3-((2-chlorophenyl)thio)-6-(6-((1,3-dimethyl-1H-pyrazol-5-yl)amino)pyridin-2-yl)-6-(thiophen-3-yl)piperidine-2,4-dione]	0.077 µM
O=C1CC(c2ccsc2)(c2cccc(CC3CCOCC3)n2)NC(=O)C1Sc1ccccc1Cl (stereo not shown) [Example 267, 3-((2-chlorophenyl)thio)-6-(6-((tetrahydro-2H-pyran-4-yl)methyl)pyridin-2-yl)-6-(thiophen-3-yl) piperidine-2,4-dione]	1.64 µM
Cn1nccc1Nc1cccc(C2(c3ccsc3)CC(=O)C(Sc3ccccc3Cl)C(=O)N2)n1 (stereo not shown) [Example 269, 3-((2-chlorophenyl)thio)-6-(6-((1-methyl-1H-pyrazol-5-yl)amino)pyridin-2-yl)-6-(thiophen-3-yl)piperidine-2,4-dione]	0.073 µM
Cn1ccc(Nc2cccc(C3(c4ccsc4)CC(=O)C(Sc4ccccc4Cl)C(=O)N3)n2)n1 (stereo not shown) [Example 270, 3-((2-chlorophenyl)thio)-6-(6-((1-methyl-1H-pyrazol-3-yl)amino)pyridin-2-yl)-6-(thiophen-3-yl)piperidine-2,4-dione]	0.099 µM
Cn1cnc(Nc2cccc(C3(c4ccsc4)CC(=O)C(Sc4ccccc4Cl)C(=O)N3)n2)n1 (stereo not shown) [Example 271, 3-((2-chlorophenyl)thio)-6-(6-((1-methyl-1H-1,2,4-triazol-3-yl)amino)pyridin-2-yl)-6-(thiophen-3-yl) piperidine-2,4-dione]	0.355 µM
Cc1cc(Nc2cccc(C3(c4ccsc4)CC(=O)C(Sc4ccccc4Cl)C(=O)N3)n2)nn1C (stereo not shown) [Example 272, 3-((2-chlorophenyl)thio)-6-(6-((1,5-dimethyl-1H-pyrazol-3-yl)amino)pyridin-2-yl)-6-(thiophen-3-yl) piperidine-2,4-dione]	0.459 µM
COc1ccc(N(C)c2cccc(C3(c4ccsc4)CC(=O)C(Sc4ccccc4Cl)C(=O)N3)n2)cc1 (stereo not shown) [Example 273, 3-((2-chlorophenyl)thio)-6-(6-((4-methoxyphenyl) (methyl)amino)pyridin-2-yl)-6-(thiophen-3-yl) piperidine-2,4-dione]	0.072 µM

The remaining lines, values ahead:

IC50	Compound
0.157 µM	COc1cccc(N(C)c2cccc(C3(c4ccsc4)CC(=O)C(Sc4ccccc4Cl)C(=O)N3)n2)c1 (stereo not shown) [Example 274, 3-((2-chlorophenyl)thio)-6-(6-((3-methoxyphenyl) (methyl)amino)pyridin-2-yl)-6-(thiophen-3-yl) piperidine-2,4-dione]
0.233 µM	CN(c1cccc(C(F)(F)F)c1)c1cccc(C2(c3ccsc3)CC(=O)C(Sc3ccccc3Cl)C(=O)N2)n1 (stereo not shown) [Example 275, 3-((2-chlorophenyl)thio)-6-(6-(methyl(3-(trifluoromethyl)phenyl)amino)pyridin-2-yl)-6-(thiophen-3-yl)piperidine-2,4-dione]
0.175 µM	Cc1cnc(Nc2cccc(C3(c4ccsc4)CC(=O)C(Sc4ccccc4Cl)C(=O)N3)n2)[nH]1 (stereo not shown) [Example 276, 3-((2-chlorophenyl)thio)-6-(6-((5-methyl-1H-imidazol-2-yl)amino)pyridin-2-yl)-6-(thiophen-3-yl)piperidine-2,4-dione]
0.337 µM	Cn1ccnc1Nc1cccc(C2(c3ccsc3)CC(=O)C(Sc3ccccc3Cl)C(=O)N2)n1 (stereo not shown) [Example 277, 3-((2-chlorophenyl)thio)-6-(6-((1-methyl-1H-imidazol-2-yl)amino)pyridin-2-yl)-6-(thiophen-3-yl)piperidine-2,4-dione]
0.339 µM	Cc1cnc(N)n1-c1cccc(C2(c3ccsc3)CC(=O)C(Sc3ccccc3Cl)C(=O)N2)n1 (stereo not shown) [Example 278, 6-(6-(2-amino-5-methyl-1H-imidazol-1-yl)pyridin-2-yl)-3-((2-chloro-phenyl)thio)-6-(thiophen-3-yl)piperidine-2,4-dione]
0.272 µM	CN(c1ccc(Cl)cc1)c1cccc(C2(c3ccsc3)CC(=O)C(Sc3ccccc3Cl)C(=O)N2)n1 (stereo not shown) [Example 279, 6-(6-((4-chlorophenyl) (methyl)amino)pyridin-2-yl)-3-((2-chlorophenyl)thio)-6-(thiophen-3-yl) piperidine-2,4-dione]
0.057 µM	O=C1CC(c2ccsc2)(c2cccc(NS(=O)(=O)N3CCC3)n2)NC(=O)C1Sc1ccccc1Cl (stereo not shown) [Example 286, N-(6-(5-((2-chlorophenyl)thio)-4,6-dioxo-2-(thiophen-3-yl)piperidin-2-yl)pyridin-2-yl)azetidine-1-sulfonamide]
0.01 µM	Cc1csc(Nc2cccc(C3(c4ccsc4)CC(=O)C(Sc4ccccc4Cl)C(=O)N3)n2)n1 (stereo not shown) [Example 287, 3-((2-chlorophenyl)thio)-6-(6-((4-methylthiazol-2-yl)amino)pyridin-2-yl)-6-(thiophen-3-yl)piperidine-2,4-dione]
0.141 µM	Cc1cnc(Nc2cccc(C3(c4ccsc4)CC(=O)C(Sc4ccccc4Cl)C(=O)N3)n2)s1 (stereo not shown) [Example 288, 3-((2-chlorophenyl)thio)-6-(6-((5-methylthiazol-2-yl)amino)pyridin-2-yl)-6-(thiophen-3-yl)piperidine-2,4-dione]
0.017 µM	O=C1CC(c2ccsc2)(c2cccc(Nc3cccc(CO)c3)n2)NC(=O)C1Sc1ccccc1Cl (stereo not shown) [Example 290]
0.081 µM	O=C1CC(c2ccsc2)(c2cccc(Nc3ccc(F)cc3)n2)NC(=O)C1Oc1ccccc1Cl (stereo not shown) [Example 295, 3-(2-chlorophenoxy)-6-[6-(4-fluoroanilino)-2-pyridyl]-6-(3-thienyl)piperidine-2,4-dione]

From US20170001990A1 (Genentech, Inc., priority 2014, published 2017)
